Experimental findings from patent US4431655A, “2,4-Disubstituted-1,2,5-thiadiazol-3(2H)-one antimicrobials” (Merck & Co., Inc., priority 1982, dated 1984) are described below.

Series [1] can be described thus: Ring stability to hydrolysis, UV absorption changes with time. In kind it is physicochemical. Conditions: equal volumes methanol-aqueous phosphate buffer (pH 8); for remaining at 1 h: read-out: % Compound Remaining after 1 hr; for remaining at 16 h: read-out: % Compound Remaining after 16 hr; for remaining at 48 h: read-out: % Compound Remaining after 48 hr; for remaining at 165 h: read-out: % Compound Remaining after 165 hr; for remaining at 336 h: read-out: % Compound Remaining after 336 hr. Here is the method:
Solutions of these compounds were prepared using equal volumes of methanol-aqueous phosphate buffer (pH 8), and decomposition by cleavage of the heterocyclic ring was monitored using ultraviolet absorption changes with time.

For a further series, the system named is Botrytis cinerea MF 4803. The series is described as follows: In vitro minimal inhibitory concentration in nutrient agar. Conditions: MF4803. Format: cell-based.
The subject of series [2] is Phytophthora cambivora MF 3753. Described as above. Format: cell-based.
For series [3], the system named is Diaperthe phaseolorum MF 4668. The series is described as above. Format: cell-based.
The test system of series [4] is Colletotrichum lagenarium MF 4800. Described as above. Particulars: Colletotrichum orbiculare, MF4800. Format: cell-based.
The test system of series [5] is Thielaviopsis basicola MF 3147. The series is described as above. In kind it is cell-based. Particulars: Berkeleyomyces basicola, MF3147.
Series [6] deals with Rhizoctonia solani MF 4579. The series is described as above. In kind it is cell-based. Particulars: MF4579.
A further series concerns Monilia nigra MF 3084. The description is as above. In kind it is cell-based. Particulars: Moniliella suaveolens, MF3084.
In series [7] the test system is Cladosporium Fulvum MF 3238. The description is as above. Conditions: Fulvia fulva. Format: cell-based.
For another series, the system named is Alternaria citri MF 2970. Described as above. In kind it is cell-based. Particulars: MF2970.
Series [8] relates to Helminthosporium oryzae MF 4806. The series is described as above. Format: cell-based. Conditions: Bipolaris oryzae, MF4806.
A further series has as its system Aspergillus niger MF 11. The description is as above. Format: cell-based. Conditions: MF11.
The subject of series [9] is Fusarium oxysporum MF 3413. The series is described as above. In kind it is cell-based. Particulars: MF3413.
Series [10] relates to Cercospora beticola MF 4571. Described as above. In kind it is cell-based. Particulars: MF4571.
Series [11] deals with Sclerotinia sclerotiorum MF 4739. The description is as above. In kind it is cell-based. Particulars: MF4739.
Series [12] concerns Helminthosporium maydis MF 4775. The series is described as above. In kind it is cell-based. Conditions: Bipolaris maydis, MF4775.
Series [13] concerns Penicillium digitatum MF 4590. The series is described as above. Particulars: MF4590. Format: cell-based.
For series [14], the system named is Verticillium dahliae MF 2416. Described as above. Format: cell-based. Particulars: MF2416.

Structures are written as SMILES. Converted amounts (≈) assume the structure as drawn.

Usually fraction remaining stands for the share of the starting amount still present when the sample was taken. On to `CCCc1nsn(Cc2ccccc2)c1=O`, for which, in [1], the “% Compound Remaining after 0 hr” value was 100%, the amount remaining at 1 h stood at 100%, the share remaining at 16 h turned out to be 100% and the amount remaining at 48 h was 100%. Also, in [1], the fraction remaining at 165 h stood at 90% and the share remaining at 336 h was determined as 90%.

In the case of `O=c1cnsn1Cc1ccccc1`, in series [1], the “% Compound Remaining after 0 hr” value is 100%, the fraction remaining at 1 h amounted to 100%, the fraction remaining at 16 h amounted to 96% and the share remaining at 48 h was determined as 80%. Moreover, in series [1], the fraction remaining at 165 h came to 50% and the fraction remaining at 336 h was 26%.

One may read the MIC as the lowest concentration found to suppress growth. Turning to `Cc1nsn(Cc2ccc(Cl)cc2)c1=O` [2-[(4-Chlorophenyl)methyl]-4-methyl-1,2,5-thiadiazol-3(2H)-one], the minimum inhibitory concentration (MIC) against Botrytis cinerea MF 4803 is 1 µg/mL (≈ 4.15 µM); in series [2], 2 µg/mL (≈ 8.31 µM); in series [3] it was 0.4 µg/mL (≈ 1.66 µM); in series [4], 2 µg/mL (≈ 8.31 µM); in series [5], 4 µg/mL (≈ 16.6 µM); in series [6] it was 8 µg/mL (≈ 33.2 µM). Further, the MIC against Monilia nigra MF 3084 was found to be 2 µg/mL (≈ 8.31 µM); in series [7] it was 1 µg/mL (≈ 4.15 µM); in the series with Alternaria citri MF 2970, 4 µg/mL (≈ 16.6 µM); in series [8], 1 µg/mL (≈ 4.15 µM); against Aspergillus niger MF 11, 4 µg/mL (≈ 16.6 µM); in series [9], 4 µg/mL (≈ 16.6 µM). Besides, the minimum inhibitory concentration (MIC) in series [10] worked out at 1 µg/mL (≈ 4.15 µM); in [11], 0.8 µg/mL (≈ 3.32 µM); in series [12] it was 0.4 µg/mL (≈ 1.66 µM); in series [13], 4 µg/mL (≈ 16.6 µM); in [14] it was 4 µg/mL (≈ 16.6 µM).

Regarding `CCCCCCn1snc(C)c1=O` [CH3, n-C6 H13, 2-n-Hexyl-4-methyl-1,2,5-thiadiazol-3(2H)-one], in [1], the “% Compound Remaining after 0 hr” value is reported as 100%, the fraction remaining at 1 h amounted to 100%, the fraction remaining at 16 h came to 100% and the fraction remaining at 48 h came to 100%. Besides, in [1], the share remaining at 165 h was found to be 100% and the fraction remaining at 336 h stood at 99%.

For the compound `Cc1nsn(Cc2ccc(Cl)cc2)c1=O` [drawing 23], in series [1], the “% Compound Remaining after 0 hr” value was 100%, the amount remaining at 1 h was determined as 100%, the amount remaining at 16 h turned out to be 100% and the amount remaining at 48 h was found to be 97%. In series [1], the amount remaining at 165 h is 93% and the amount remaining at 336 h turned out to be 91%.

On to `O=c1c(Cl)nsn1Cc1ccccc1` [reference compound], for which, in series [1], the “% Compound Remaining after 0 hr” value stood at 100%, the amount remaining at 1 h is 48%, the fraction remaining at 16 h turned out to be 6% and the share remaining at 48 h came out at 0%.

Turning to `O=c1c(Cl)nsn1Cc1ccc(Cl)cc1` [reference compound], in series [1], the “% Compound Remaining after 0 hr” value came to 100%, the fraction remaining at 16 h came out at 0% and the fraction remaining at 48 h was determined as 0%.
